Experimental findings from patent US6875571B2, “NF-AT polypeptides and polynucleotides and screening methods for immunosuppressive agents” (The Board of Trustees of the Leland Stanford Junior …, priority 1991, dated 2005) are described below.

Data set [1] relates to NF-AT. The data set is described as follows: Gel mobility shift assay of NF-AT DNA binding activity in extracts of treated Jurkat cells. It is filed as cell-based, human. On the procedure:
Nuclear extracts were made according to the procedures of Ohlsson and Edlund (Cell 45:35 (1986)). Briefly, nuclei were extracted with 0.3 M (NH4)2SO4 and the fraction that contained the nuclear proteins was precipitated with 0.2 g/ml (NH4)2SO4 and dialyzed for 4 h. at 4° C. The NF-AT binding site of the IL-2 enhancer (−290 and −263) was used as a probe for binding activity. The binding experiment was carried out essentially as described in Shaw, J. P. Science 241:202-205 (1988)).
NFATZ Jurkat cells were pretreated with 100 μM anisoymycin (Sigma), a protein synthesis inhibitor, for 30 minutes before stimulating the cells. Conditions for activating the cells and preparing nuclear and cytoplasmic extracts are described in Example 3.
(§1) NFATZ Jurkat cells and JK12/90.1 cells (a gift from N. Shastri) were stimulated for 2 hours with 20 ng/ml PMA and 2 μM ionomycin. […] Nuclear extracts were prepared as described previously with modifications. Cytoplasmic extracts were made from the same cells as the nuclear extracts. Following lysis of the cells with buffer A [10 mM Hepes (pH 7.8), 15 mM Kcl, 2 mM MgCl2, 1 mM DTT, 0.1 mM EDTA, 0.1 mM PMSF] plus 0.05% NP-40, and pelleting of the nuclei, the cytoplasmic fraction was removed and stabilized with 10% (vol/vol) glycerol and 1/10 volume of buffer B [0.3 M Hepes (pH 7.8), 1.4 M Kcl, and 30 mM MgCl2]. The cytoplasmic extract was centrifuged at 200,000 g for 15 minutes. An equal volume of 3 M (NH4)2SO4 (pH 7.9) was added to the supernatant, and precipitated proteins were pelleted at 100,000 g for 10 minutes. The pelleted cytoplasmic proteins were resuspended in buffer C [50 mM Hepes (pH 7.8), 50 mM KCl, 1 mM DTT, 0.1 mM EDTA, 0.1 mM PMSF, 10% (vol/vol) glycerol] and desalted by passage over a P6DG column (BioRad). Protein concentrations were determined using a BioRad protein assay kit. To assess the completeness of the nuclear and cytoplasmic fractionation, we assayed for Oct-1 (a constitutive nuclear located DNA binding protein) binding activity and β-galactosidase (cytoplasmic localized) enzyme activity. […]

Another data set has as its system NF-ATc. The data set is described as follows: Western blot mobility of epitope tagged NF-ATc expressed in Jurkat cells. It is filed as cell-based, human. The following applies: stimulated 2 hrs, whole cell lysates. The method, then: Whole cell lysates were analyzed by western blotting as in FIG. 13.
The cDNA shown in FIG. 12 was fused to the Hemophilus influenza hemaglutinin (HA) 12 amino acid epitope tag in the determined reading frame and operably linked to the SRα promoter in the vector pBJ5 (Lin et al, 1990, Science 249:677-679). The resultant construct was transiently transfected by electroporation into Jurkat human T lymphocytes, and into Cos fibroblast cells. Expression of the epitope-tagged NF-ATc protein was determined by Western blotting of whole cell extracts prepared from the transfected cells, using an antibody (12CA5, Berkeley Antibody Co., CA) that detects the HA epitope.
Post-translational modification of NF-ATc was investigated in cells treated with agents that activate PKC or increase intracellular Ca++. […] Whole cell lysates were analyzed by western blotting as in FIG. 13. […] This is consistent with a dephosphorylation event, possibly by direct action of calcineurin (Clipstone and Crabtree (1992) Nature 357: 695-697), however, any of a large number of processes could produce the observed mobility changes. There is evidence that NF-ATp is a substrate for calcineurin, however, the mobility shifts produced by phosphatase treatment of NF-ATp or NF-ATc are far greater than those observed in FIG. 19. These observations indicate that NF-ATc is not a direct substrate of calcineurin.

The subject of data set [2] is NFATZ Jurkat cells and JK12/90.1 cells. Put plainly: Toxic effects on the stimulated cells. It is filed as cell-based. The following applies: FK506 100 ng/ml or CsA 500 ng/ml, five minutes prior to PMA and ionomycin, 2 hours.
Data set [3] has as its system nuclear component of NF-AT. The data set is described as follows: Reconstitution of NF-AT binding: synthesis of the nuclear component. It is filed as cell-based, human. Conditions: PMA/ionomycin-stimulated cells. On the procedure: as §1
Data set [4] deals with NF-AT. Put plainly: In vitro transcription directed by multimerized NF-AT binding sites (G-less) by nuclear extracts of treated Jurkat cells. It is filed as cell-based, human. Conditions: nuclear extracts of stimulated/FK506-treated cells, 10 ng/ml. The method, then:
The effect of FK506 on the ability of NF-AT to direct transcription was tested by preparing nuclear extracts from stimulated or stimulated/FK506-treated cells and testing their ability to transcribe a G-less cassette in which transcription was dependent upon three NF-AT sites located within a synthetic promoter.
Promoter constructs, nuclear extracts and transcription reactions were prepared as described. NFATZ Jurkat cells, derived from a human T cell leukemia, were stimulated with […] PMA (Sigma), 2 μM ionomycin (Calbiochem) for 2 hours. FK506 was used at 10 ng/ml and added five minutes prior to the addition of PMA and ionomycin. […] Transcription was quantitated using a radioanalytic imaging system (AMBIS). […]
In general, transcription reactions (20 μl) contained 40 μg/ml of circular DNA template [400 ng of the test construct, 40 ng of the AdMLP G-less construct, and 360 ng of poly dI-dC (Pharmacia)] and between 3-5 mg/ml nuclear protein extract in a buffer containing 25 mM Hepes (pH 7.6), 50 mM KCl, 6 mM MgCl2, 0.6 mM each of ATP and CTP, 7 μM UTP, 7 μCi [a-^32P] […] The pellets were rinsed with 70% ethanol, air dried, and resuspended in 10 μl of loading dye (90% formamide, 0.01% xylene cyanol, and 0.01% bromophenol blue in 1×TBE.) The transcripts were analyzed on 6% denaturing polyacrylamide gels. […]

A further data set deals with NF-AT binding site. Put plainly: NF-AT luciferase reporter co-transfected with NF-ATc expression vector in Cos and Jurkat cells. It counts as cell-based. The following applies: overexpression in Cos cells and Jurkat cells. On the procedure: (§2) The NF-ATc cDNA was operably linked to a portion of the SV40 early gene promoter and the mV transcription regulatory regions in the pBJ vector. This expression vector was co-tranfected into Jurkat and Cos cells with either a) three copies of NF-AT binding site linked to and directing transcription of luciferase (results shown in FIGS. 14A and 14B) the entire IL-2 enhancer/promoter directing transcription of luciferase (results shown in FIG. 14B). Cytosolic extracts were prepared and luciferase assays carried out by standard procedures (de Wet et al, 1987, Mol. Cell. Biol. 7:724-[…]).

A further data set deals with IL-2 promoter. The data set is described as follows: IL-2 enhancer/promoter luciferase reporter co-transfected with NF-ATc expression vector in Cos cells. Conditions: overexpression in Cos cells. It is filed as cell-based. The method, then: as §2

Regarding `COc1ccc(C[C@H]2NC[C@H](O)[C@H]2OC(C)=O)cc1` [anisomycin], the “appearance of the NF-AT complex in activated T cells” value with NF-AT [1] (NFATZ Jurkat cells pretreated with 100 μM for 30 minutes before stimulation) is “completely blocked”. Further, the “ability of cytoplasmic extracts from treated cells to reconstitute the NF-AT complex” value in the data set with NF-AT [1] (cytoplasmic extracts of cells grown with 100 μM protein synthesis inhibitor) is given as “able to reconstitute”.
Take `C[C@H](CCC(=O)O)C[C@H](C)C[C@H](C)C(=O)/C=C(\O)[C@H](C)C[C@H](C)C/C=C/[C@@H](C)[C@@H](O)[C@@H](C)[C@@H](O)C[C@@H]1CC[C@@](C)([C@H]2CC[C@@](C)([C@@H](C)O)O2)O1` [ionomycin]: in the data set with NF-ATc, the “mobility of NF-ATc versus non-treated cells” value is “migrates faster”.
`C=CC[C@@H]1/C=C(\C)C[C@H](C)C[C@H](OC)[C@H]2O[C@@](O)(C(=O)C(=O)N3CCCC[C@H]3C(=O)O[C@H](/C(C)=C/[C@@H]3CC[C@@H](O)[C@H](OC)C3)[C@H](C)[C@@H](O)CC1=O)[C@H](C)C[C@@H]2OC` [FK506]: the “reduction of NF-AT DNA-binding activity in the extracts” value in the data set with NF-AT [1] (nuclear extracts of stimulated/FK506-treated cells, 10 ng/ml) is 50 to 80%. For the same molecule, the “toxic effects to the cells” value in data set [2] is “without any toxic effects”. For the same molecule, the “synthesis of the nuclear component of NF-AT” value in data set [3] is on record as “did not inhibit”. The “reduction of in vitro transcription directed by multimerized NF-AT binding sites” value with NF-AT [4] is listed as 2.5 fold.
In the case of `CCCCCCCCCCCCCC(=O)O[C@@H]1[C@@H](C)[C@@]2(O)[C@@H](C=C(CO)C[C@]3(O)C(=O)C(C)=C[C@@H]23)[C@@H]2C(C)(C)[C@]12OC(C)=O` [PMA, phorbol myristate acetate], the “mobility of NF-ATc versus non-treated cells” value in the data set with NF-ATc was “slower migrating”.

B1: NF-ATc: human cytosolic NF-AT subunit, protein of 716 amino acids (SEQ ID NO: 38), expressed from cDNA (protein)
chain: MPSTSFPVPSKFPLGPAAAVFGRGETLGPAPRAGGTMKSAEEEHYGYASSNVSPALPLPTAHSTLPAPCHNLQTSTPGIIPPADHPSGYGAALDGCPAGYFLSSGHTRPDGAPALESPRIEITSCLGLYHNNNQFFHDVEVEDVLPSSKRSPSTATLSLPSLEAYRDPSCLSPASSLSSRSCNSEASSYESNYSYPYASPQTSPWQSPCVSPKTTDPEEGFPRGLGACTLLGSPQHSPSTSPRASVTEESWLGARSSRPASPCNKRKYSLNGRQPPYSPHHSPTPSPHGSPRVSVTDDSWLGNTTQYTSSAIVAAINALTTDSSLDLGDGVPVKSRKTTLEQPPSVALKVEPVGEDLGSPPPPADFAPEDYSSFQHIRKGGFCDQYLAVPQHPYQWAKPKPLSPTSYMSPTLPALDWQLPSHSGPYELRIEVQPKSHHRAHYETEGSRGAVKASAGGHPIVQLHGYLENEPLMLQLFIGTADDRLLRPHAFYQVHRITGKTVSTTSHEAILSNTKVLEIPLLPENSMRAVIDCACILKLRNSDIELRKGETDIGRKNTRVRLVFRVHVPQPSGRTLSLQVASNPIECSQRSAQELPLVEKQSTDSYPVVGGKKMVLSGHNFLQDSKVIFVEKAPDGHHVWEMEAKTDRDLCKPNSLVVEIPPFRNQRITSPVHVSFYVCNGKRKRSQYQRFTYLPANGNAIFLTVSREHERVGCFF
modifications: human
In the case of B1, the “enhancement of NF-AT-dependent transcription” value in the data set with NF-AT binding site is on record as 50-1000 fold. Besides, the “activation of the IL-2 promoter” value in the data set on IL-2 promoter is listed as “activates”.
